# Experimental data as given in patent publication US20250320224A1 (DOMAIN THERAPEUTICS, priority 2022, published 2025).
# Target: T1, human PAR-2 (hPAR-2) receptor (Homo sapiens, UniProt P55085)
# T1 construct: expressed in HEK-293 cells in an endogenous manner; endogenous in cells; host or cells: HEK-293
# T1 sequence (P55085 26-397): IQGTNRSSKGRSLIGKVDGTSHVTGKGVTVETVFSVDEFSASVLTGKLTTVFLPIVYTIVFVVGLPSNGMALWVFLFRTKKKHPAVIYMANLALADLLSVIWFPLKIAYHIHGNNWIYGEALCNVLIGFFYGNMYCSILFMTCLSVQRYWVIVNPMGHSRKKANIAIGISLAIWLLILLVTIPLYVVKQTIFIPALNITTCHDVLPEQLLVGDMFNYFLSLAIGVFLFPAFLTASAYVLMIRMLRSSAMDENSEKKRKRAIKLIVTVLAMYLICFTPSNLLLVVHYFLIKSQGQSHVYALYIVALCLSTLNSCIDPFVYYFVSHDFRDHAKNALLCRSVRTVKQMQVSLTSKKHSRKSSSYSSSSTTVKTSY
# Test: In vitro human PAR-2 functional antagonist activity using calcium assays
# Assay type: cell-based
# Details: hPAR-2 endogenously expressed in HEK-293 cells; stimulated by 2-Furoyl-LIGRLO-NH2 peptide; Fluo4AM intracellular calcium, FLIPR Tetra
# How it was run: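 HEK-293 cells with endogenous hPAR-2 were loaded with Fluo4AM and read for intracellular Ca2+ on FLIPR. After 10 min with compound alone, cells were stimulated with 2-Furoyl-LIGRLO-NH2 at the concentration giving 80% of maximal response. Inhibition was then recorded over 5 min relative to buffer and agonist-only signals.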
row,SMILES,IC50
1,"O=C1NC(=O)C2(CCN(C(=O)c3ccc4c(n3)C3(CCCC3)CN4c3ccc(Cl)c(F)c3)CC2)N1 [Example 4, 8-(1′-(4-chloro-3-fluorophenyl)-1′,2′-dihydrospiro[cyclopentane-1,3′-pyrrolo[3,2-b]pyridine]-5′-carbonyl)-1,3,8-triazaspiro[4.5]decane-2,4-dione]",< 500 nM
2,"CC1(C)CN(c2ccc(Cl)c(F)c2)c2ccc(C(=O)N3CCN(c4ccc(CC(=O)O)cn4)CC3(C)C)nc21 [Example 65, 2-(6-(4-(1-(4-chloro-3-fluorophenyl)-3,3-dimethyl-2,3-dihydro-1H-pyrrolo[3,2-b]pyridine-5-carbonyl)-3,3-dimethylpiperazin-1-yl)pyridin-3-yl)acetic acid]",< 500 nM
3,"CC1(C)C(=O)NCCN1C(=O)c1ccc2c(n1)[C@@]1(C)CCO[C@H]1N2c1ccc(Cl)c(F)c1 (single isomer, unassigned) [Example 62]",< 500 nM
4,"CC1(C)CN(c2ccc(Cl)c(F)c2)c2ccc(C(=O)N3CCC(C(=O)O)CC3)nc21 [Example 33, 1-(1-(4-chloro-3-fluorophenyl)-3,3-dimethyl-2,3-dihydro-1H-pyrrolo[3,2-b]pyridine-5-carbonyl)piperidine-4-carboxylic acid]",500 to 10000 nM
5,"Cc1nc(N2CCN(C(=O)c3ccc4c(n3)C(C)(C)CN4c3ccc(Cl)c(F)c3)C(C)(C)C2)sc1C(=O)O [Example 69, 2-(4-(1-(4-chloro-3-fluorophenyl)-3,3-dimethyl-2,3-dihydro-1H-pyrrolo[3,2-b]pyridine-5-carbonyl)-3,3-dimethylpiperazin-1-yl)-4-methylthiazole-5-carboxylic acid]",< 500 nM
6,"CC1(C)C(=O)NCCN1C(=O)c1ccc2c(n1)[C@]1(C)CCO[C@@H]1N2c1ccc(Cl)c(F)c1 (racemic) [Example 61, cis-4-(8-(4-chloro-3-fluorophenyl)-3a-methyl-3,3a,8,8a-tetrahydro-2H-furo[3′,2′:4,5]pyrrolo[3,2-b]pyridine-5-carbonyl)-3,3-dimethylpiperazin-2-one]",< 500 nM
7,"CC1(C)C(=O)NCCN1C(=O)c1ccc2c(n1)C1(CCCC1)C(=O)N2c1ccc(Cl)c(F)c1 [Example 2, 1′-(4-chloro-3-fluorophenyl)-5′-(2,2-dimethyl-3-oxopiperazine-1-carbonyl)spiro[cyclopentane-1,3′-pyrrolo[3,2-b]pyridin]-2′(1′H)-one]",500 to 10000 nM
8,"CC(=O)N1CCN(C(=O)c2ccc3c(n2)C(C)(C)CN3c2ccc(Cl)c(F)c2)C(C)(C)C1 [Example 24, 1-(4-(1-(4-chloro-3-fluorophenyl)-3,3-dimethyl-2,3-dihydro-1H-pyrrolo[3,2-b]pyridine-5-carbonyl)-3,3-dimethylpiperazin-1-yl)ethan-1-one]",500 to 10000 nM

# Results, then the compound that gave them:
row,IC50,SMILES
1,500 to 10000 nM,"CO[C@@H]1CN(C(=O)c2ccc3c(n2)C(C)(C)CN3c2ccc(Cl)c(F)c2)CC[C@@H]1CC(=O)O [Example 98, 2-((3S,4R)-1-(1-(4-chloro-3-fluorophenyl)-3,3-dimethyl-2,3-dihydro-1H-pyrrolo[3,2-b]pyridine-5-carbonyl)-3-methoxypiperidin-4-yl)acetic acid]"
2,500 to 10000 nM,"CC1(C)CN(c2ccc(CC(=O)O)cn2)CCN1C(=O)c1cc2n(n1)C(C)(C)CN(c1ccc(Cl)c(F)c1)C2 [Example 195, 2-(6-(4-(5-(4-chloro-3-fluorophenyl)-7,7-dimethyl-4,5,6,7-tetrahydropyrazolo[1,5-a]pyrazine-2-carbonyl)-3,3-dimethylpiperazin-1-yl)pyridin-3-yl)acetic acid]"
3,500 to 10000 nM,"CC1(C)CN(c2ccc(Cl)c(F)c2)c2ccc(C(=O)N3CCN(c4cnccc4C(=O)O)CC3(C)C)nc21 [Example 107, 3-(4-(1-(4-chloro-3-fluorophenyl)-3,3-dimethyl-2,3-dihydro-1H-pyrrolo[3,2-b]pyridine-5-carbonyl)-3,3-dimethylpiperazin-1-yl)isonicotinic acid]"
4,> 10000 nM,"CC1(C)CN(c2ccc(Cl)c(F)c2)c2ccc(C(=O)N3CCC4(C3)C(=O)Nc3ccccc34)nc21 (centres unmarked) [Example 120, 1′-(1-(4-chloro-3-fluorophenyl)-3,3-dimethyl-2,3-dihydro-1H-pyrrolo[3,2-b]pyridine-5-carbonyl)spiro[indoline-3,3′-pyrrolidin]-2-one]"
5,< 500 nM,"CO[C@H]1CCC2(C1)CN(c1ccc(Cl)c(F)c1)c1ccc(C(=O)N3CCN(c4cc(C)c(C(=O)O)c(C)n4)CC3(C)C)nc12 (stereo partly drawn) [Example 146, 6-(4-((3S)-1′-(4-chloro-3-fluorophenyl)-3-methoxy-1′,2′-dihydrospiro[cyclopentane-1,3′-pyrrolo[3,2-b]pyridine]-5′-carbonyl)-3,3-dimethylpiperazin-1-yl)-2,4-dimethylnicotinic acid]"
6,< 500 nM,"Cc1cc(N2CCN(C(=O)c3cnc4c(n3)C3(CN4c4ccc(F)c(F)c4)CC(C)(C)C3)C(C)(C)C2)nc(C)c1C(=O)O [Example 233, 6-(4-(5′-(3,4-difluorophenyl)-3,3-dimethyl-5′,6′-dihydrospiro[cyclobutane-1,7′-pyrrolo[2,3-b]pyrazine]-2′-carbonyl)-3,3-dimethylpiperazin-1-yl)-2,4-dimethylnicotinic acid]"
7,< 500 nM,"CC1(C)CN(c2ccc(Cl)c(F)c2)c2ccc(C(=O)N3CCN(c4cc(C(=O)O)ccn4)CC3(C)C)nc21 [Example 105, 2-(4-(1-(4-chloro-3-fluorophenyl)-3,3-dimethyl-2,3-dihydro-1H-pyrrolo[3,2-b]pyridine-5-carbonyl)-3,3-dimethylpiperazin-1-yl)isonicotinic acid]"
8,> 10000 nM,"CC1(C)CN(c2ccc(Cl)c(F)c2)c2ccc(C(=O)N3CCN(c4ccc(CC(=O)O)cn4)CC3(C)C)nc2O1 [Example 265, 2-(6-(4-(1-(4-chloro-3-fluorophenyl)-3,3-dimethyl-2,3-dihydro-1H-pyrido[2,3-b][1,4]oxazine-6-carbonyl)-3,3-dimethylpiperazin-1-yl)pyridin-3-yl)acetic acid]"
9,< 500 nM,"Cc1cc(N2CCN(C(=O)c3cnc4c(n3)C(C)(C)CN4c3ccc(F)c(Cl)c3)C(C)(C)C2)nc(C)c1C(=O)O [Example 191, 6-(4-(5-(3-chloro-4-fluorophenyl)-7,7-dimethyl-6,7-dihydro-5H-pyrrolo[2,3-b]pyrazine-2-carbonyl)-3,3-dimethylpiperazin-1-yl)-2,4-dimethylnicotinic acid]"
10,< 500 nM,"CC1(C)CN(c2ccc(Cl)c(F)c2)c2ccc(C(=O)N3CCN(c4cc(CC(=O)O)ccn4)CC3(C)C)nc21 [Example 115, 2-(2-(4-(1-(4-chloro-3-fluorophenyl)-3,3-dimethyl-2,3-dihydro-1H-pyrrolo[3,2-b]pyridine-5-carbonyl)-3,3-dimethylpiperazin-1-yl)pyridin-4-yl)acetic acid]"
11,< 500 nM,"Cc1ccc(N2CCN(C(=O)c3ccc4c(n3)C(C)(C)CN4c3ccc(Cl)c(F)c3)C(C)(C)C2)nc1C(=O)O [Example 140, 6-(4-(1-(4-chloro-3-fluorophenyl)-3,3-dimethyl-2,3-dihydro-1H-pyrrolo[3,2-b]pyridine-5-carbonyl)-3,3-dimethylpiperazin-1-yl)-3-methylpicolinic acid]"
12,500 to 10000 nM,"CO[C@H]1CN(C(=O)c2ccc3c(n2)C(C)(C)CN3c2ccc(Cl)c(F)c2)CC[C@@H]1CC(=O)O [Example 94, 2-((3R,4R)-1-(1-(4-chloro-3-fluorophenyl)-3,3-dimethyl-2,3-dihydro-1H-pyrrolo[3,2-b]pyridine-5-carbonyl)-3-methoxypiperidin-4-yl)acetic acid]"
